Measured values reported in PubChem BioAssay (NCI).
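A five-concentration, 48-hour dose response in 96-well plates underlies each endpoint, interpolated linearly between surrounding concentrations. TGI is the concentration that stops growth completely.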

How the values were obtained:
Assay in all cases: NCI anticancer screen, dose series, 48 h
[1] = tested on: SK-MEL-2 melanoma
[2] = tested on: DMS 114 small cell lung
[3] = tested on: HOP-92 NSCLC
[4] = tested on: HOP-18 NSCLC
[5] = tested on: HCT-116 colon
[6] = tested on: UO-31 renal
[7] = tested on: SF-539 CNS
[8] = tested on: A498 renal
[9] = tested on: MOLT-4 leukemia
[10] = tested on: NCI-H226 lung
[11] = tested on: U251 CNS
[12] = tested on: RXF 393 renal
[13] = tested on: COLO 205 colon
[14] = tested on: LOX IMVI melanoma
[15] = tested on: HCT-15 colon
[16] = tested on: MALME-3M melanoma
[17] = tested on: ACHN renal
[18] = tested on: SNB-78 CNS
[19] = tested on: A549 NSCLC
[20] = tested on: M19-MEL melanoma
[21] = tested on: OVCAR-4 ovarian
[22] = tested on: UACC-62 melanoma
[23] = tested on: SK-MEL-28 melanoma
[24] = tested on: HL-60(TB) leukemia
[25] = tested on: SK-MEL-5 melanoma
[26] = tested on: KM20L2 colon
[27] = tested on: HT29 colon
[28] = tested on: XF 498 CNS
[29] = tested on: DMS 273 small cell lung
[30] = tested on: DLD-1 colon
[31] = tested on: SK-OV-3 ovarian
[32] = tested on: OVCAR-5 ovarian
[33] = tested on: 786-0 renal
[34] = tested on: OVCAR-3 ovarian
[35] = tested on: K-562 leukemia
[36] = tested on: UACC-257 melanoma
[37] = tested on: HOP-62 NSCLC
[38] = tested on: HCC-2998 colon
[39] = tested on: EKVX NSCLC
[40] = tested on: NCI-H23 lung
[41] = tested on: IGROV1 ovarian
[42] = tested on: CAKI-1 renal
[43] = tested on: RPMI-8226 leukemia
[44] = tested on: TK-10 renal
[45] = tested on: SW-620 colon
[46] = tested on: SF-295 CNS
[47] = tested on: NCI-H460 lung
[48] = tested on: CCRF-CEM leukemia
[49] = tested on: NCI-H522 lung
[50] = tested on: OVCAR-8 ovarian
[51] = tested on: LXFL 529 NSCLC
[52] = tested on: SF-268 CNS
[53] = tested on: SNB-19 CNS
[54] = tested on: KM12 colon
[55] = tested on: M14 melanoma
[56] = tested on: DU-145 prostate
[57] = tested on: MCF7 breast
[58] = tested on: NCI/ADR-RES ovarian
[59] = tested on: T-47D breast
[60] = tested on: MDA-MB-231 breast
[61] = tested on: SR leukemia
[62] = tested on: SNB-75 CNS
[63] = tested on: MDA-MB-435
[64] = tested on: SN12C renal
[65] = tested on: PC-3 prostate
[66] = tested on: MDA-N
[67] = tested on: HS 578T breast
[68] = tested on: BT-549 breast
[69] = tested on: RXF-631 renal

CCOc1ccc(C2=NN(CC)C(=O)C(C3C(=O)N(c4ccccc4)N=C3C)C2)cc1 (configuration not stated)
TGI [1]: > 100 µM | TGI [2]: > 100 µM | TGI [3]: > 100 µM | TGI [4]: > 100 µM | TGI [5]: > 100 µM | TGI [6]: > 100 µM | TGI [7]: > 100 µM | TGI [8]: > 100 µM | TGI [9]: > 100 µM | TGI [10]: > 100 µM | TGI [11]: > 100 µM | TGI [12]: > 100 µM | TGI [13]: > 100 µM | TGI [14]: > 100 µM | TGI [15]: > 100 µM | TGI [16]: > 100 µM | TGI [17]: > 100 µM | TGI [18]: > 100 µM | TGI [19]: > 100 µM | TGI [20]: > 100 µM | TGI [21]: > 100 µM | TGI [22]: > 100 µM | TGI [23]: > 100 µM | TGI [24]: > 100 µM | TGI [25]: > 100 µM | TGI [26]: > 100 µM | TGI [27]: > 100 µM | TGI [28]: > 100 µM | TGI [29]: > 100 µM | TGI [30]: > 100 µM | TGI [31]: > 100 µM | TGI [32]: > 100 µM | TGI [33]: > 100 µM | TGI [34]: > 100 µM | TGI [35]: > 100 µM | TGI [36]: > 100 µM | TGI [37]: > 100 µM | TGI [38]: > 100 µM | TGI [39]: > 100 µM | TGI [40]: > 100 µM | TGI [41]: > 100 µM | TGI [42]: > 100 µM | TGI [43]: > 100 µM | TGI [44]: > 100 µM | TGI [45]: > 100 µM | TGI [46]: > 100 µM | TGI [47]: > 100 µM | TGI [48]: > 100 µM | TGI [49]: > 100 µM | TGI [50]: > 100 µM | TGI [51]: > 100 µM | TGI [52]: > 100 µM | TGI [53]: > 100 µM | TGI [54]: > 100 µM | TGI [55]: > 100 µM

COC(=O)c1ccccc1C1CN=NC12Cc1ccc(C)cc1C2=O (configuration not stated)
TGI [1]: > 100 µM | TGI [56]: > 100 µM | TGI [3]: > 100 µM | TGI [5]: > 100 µM | TGI [6]: > 100 µM | TGI [57]: > 100 µM | TGI [7]: > 100 µM | TGI [58]: > 100 µM | TGI [8]: > 100 µM | TGI [9]: > 100 µM | TGI [10]: > 100 µM | TGI [11]: > 100 µM | TGI [12]: > 100 µM | TGI [59]: > 100 µM | TGI [13]: > 100 µM | TGI [14]: > 100 µM | TGI [15]: > 100 µM | TGI [16]: > 100 µM | TGI [17]: > 100 µM | TGI [19]: > 100 µM | TGI [60]: > 100 µM | TGI [61]: > 100 µM | TGI [62]: > 100 µM | TGI [21]: > 100 µM | TGI [63]: > 100 µM | TGI [22]: > 100 µM | TGI [23]: > 100 µM | TGI [24]: > 100 µM | TGI [64]: > 100 µM | TGI [25]: > 100 µM | TGI [27]: > 100 µM | TGI [31]: > 100 µM | TGI [32]: > 100 µM | TGI [33]: > 100 µM | TGI [65]: > 100 µM | TGI [66]: > 100 µM | TGI [67]: > 100 µM | TGI [68]: > 100 µM | TGI [34]: > 100 µM | TGI [35]: > 100 µM | TGI [36]: > 100 µM | TGI [37]: > 100 µM | TGI [38]: > 100 µM | TGI [39]: > 100 µM | TGI [40]: > 100 µM | TGI [41]: > 100 µM | TGI [42]: > 100 µM | TGI [43]: > 100 µM | TGI [44]: > 100 µM | TGI [45]: > 100 µM | TGI [46]: > 100 µM | TGI [47]: > 100 µM | TGI [48]: > 100 µM | TGI [49]: > 100 µM | TGI [50]: > 100 µM | TGI [52]: > 100 µM | TGI [53]: > 100 µM | TGI [54]: > 100 µM | TGI [55]: > 100 µM

CN1NC(c2ccc(Cl)cc2)=C(C#N)C(=O)CC1c1ccccc1 (configuration not stated)
TGI [1]: > 100 µM | TGI [2]: > 100 µM | TGI [3]: > 100 µM | TGI [4]: > 100 µM | TGI [5]: > 100 µM | TGI [8]: > 100 µM | TGI [11]: > 100 µM | TGI [12]: > 100 µM | TGI [13]: > 100 µM | TGI [14]: > 100 µM | TGI [15]: > 100 µM | TGI [17]: > 100 µM | TGI [19]: > 100 µM | TGI [61]: > 100 µM | TGI [62]: > 100 µM | TGI [69]: > 100 µM | TGI [21]: > 100 µM | TGI [23]: > 100 µM | TGI [24]: > 100 µM | TGI [25]: > 100 µM | TGI [26]: > 100 µM | TGI [27]: > 100 µM | TGI [29]: > 100 µM | TGI [30]: > 100 µM | TGI [31]: > 100 µM | TGI [32]: > 100 µM | TGI [33]: > 100 µM | TGI [36]: > 100 µM | TGI [40]: > 100 µM | TGI [42]: > 100 µM | TGI [43]: > 100 µM | TGI [44]: > 100 µM | TGI [45]: > 100 µM | TGI [46]: > 100 µM | TGI [47]: > 100 µM | TGI [49]: > 100 µM | TGI [51]: > 100 µM | TGI [52]: > 100 µM | TGI [53]: > 100 µM | TGI [54]: > 100 µM

Nc1nc(SCc2ccccc2Cl)c2ncn(C3OC(CO)C(O)C3O)c2n1 (configuration not stated)
TGI [1]: > 100 µM | TGI [2]: > 100 µM | TGI [3]: > 100 µM | TGI [4]: > 100 µM | TGI [5]: > 100 µM | TGI [6]: > 100 µM | TGI [7]: > 100 µM | TGI [8]: > 100 µM | TGI [9]: > 100 µM | TGI [11]: > 100 µM | TGI [12]: > 100 µM | TGI [13]: > 100 µM | TGI [14]: > 100 µM | TGI [15]: > 100 µM | TGI [16]: > 100 µM | TGI [17]: > 100 µM | TGI [19]: > 100 µM | TGI [61]: > 100 µM | TGI [62]: 98.2 µM | TGI [20]: > 100 µM | TGI [21]: > 100 µM | TGI [22]: > 100 µM | TGI [23]: > 100 µM | TGI [24]: > 100 µM | TGI [64]: > 100 µM | TGI [25]: > 100 µM | TGI [26]: > 100 µM | TGI [27]: > 100 µM | TGI [29]: > 100 µM | TGI [30]: > 100 µM | TGI [31]: > 100 µM | TGI [32]: > 100 µM | TGI [33]: > 100 µM | TGI [34]: > 100 µM | TGI [35]: > 100 µM | TGI [37]: > 100 µM | TGI [38]: > 100 µM | TGI [40]: > 100 µM | TGI [41]: > 100 µM | TGI [42]: > 100 µM | TGI [43]: > 100 µM | TGI [44]: > 100 µM | TGI [45]: > 100 µM | TGI [46]: > 100 µM | TGI [47]: > 100 µM | TGI [48]: > 100 µM | TGI [49]: > 100 µM | TGI [50]: > 100 µM | TGI [51]: > 100 µM | TGI [52]: > 100 µM | TGI [53]: > 100 µM | TGI [54]: > 100 µM | TGI [55]: > 100 µM
